Data taken from ChEMBL document CHEMBL2150932, “Structure-activity relationships and molecular modeling of 1,2,4-triazoles as adenosine receptor antagonists” (ACS Med Chem Lett, 2012).

What was measured:
Adenosine receptor A2a [1] = biological target: T1, Adenosine receptor A2a (Homo sapiens, UniProt P29274); experiment: Displacement of [3H]CGS21680 from human A2A adenosine receptor expressed in HEK293 cells after 60 mins by liquid scintillation counting; assay type: cell-based
Adenosine receptor A3 = biological target: T2, Adenosine receptor A3 (Homo sapiens, UniProt P0DMS8); experiment: Displacement of […] from human A3 adenosine receptor expressed in CHO cells after 60 mins by liquid scintillation counting; assay type: cell-based
T2 sequence (P0DMS8 whole entry): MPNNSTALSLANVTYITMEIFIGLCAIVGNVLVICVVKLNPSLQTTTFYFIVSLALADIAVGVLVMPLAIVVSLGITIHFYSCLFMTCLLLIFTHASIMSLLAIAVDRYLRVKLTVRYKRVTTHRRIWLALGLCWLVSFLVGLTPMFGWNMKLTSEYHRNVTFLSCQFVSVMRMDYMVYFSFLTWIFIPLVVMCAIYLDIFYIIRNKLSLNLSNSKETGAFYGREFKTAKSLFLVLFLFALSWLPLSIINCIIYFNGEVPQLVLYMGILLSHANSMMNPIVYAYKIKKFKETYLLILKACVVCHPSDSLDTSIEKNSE

[2] = biological target: T3, Adenosine receptor A2b (Homo sapiens) (UniProt P29275); experiment: Antagonist activity at human A2B adenosine receptor expressed in CHO cells assessed as inhibition of NECA-induced cAMP accumulation at 10 uM after 20 mins; assay type: functional, cell-based
T3 sequence (whole entry): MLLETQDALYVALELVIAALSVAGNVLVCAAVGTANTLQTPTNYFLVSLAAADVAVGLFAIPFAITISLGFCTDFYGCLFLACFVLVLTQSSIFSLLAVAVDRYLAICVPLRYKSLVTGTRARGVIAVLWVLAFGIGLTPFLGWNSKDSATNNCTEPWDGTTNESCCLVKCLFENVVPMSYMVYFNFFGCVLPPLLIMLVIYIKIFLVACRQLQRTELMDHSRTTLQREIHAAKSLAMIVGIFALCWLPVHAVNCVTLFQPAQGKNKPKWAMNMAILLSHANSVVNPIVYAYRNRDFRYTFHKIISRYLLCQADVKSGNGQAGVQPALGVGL

[3] = biological target: T4, Adenosine receptor A1 (Homo sapiens) (UniProt P30542); experiment: Inhibition of human A1 adenosine receptor expressed in CHO cells at 10 uM after 60 mins by liquid scintillation counting; assay type: cell-based
T4 sequence (whole entry): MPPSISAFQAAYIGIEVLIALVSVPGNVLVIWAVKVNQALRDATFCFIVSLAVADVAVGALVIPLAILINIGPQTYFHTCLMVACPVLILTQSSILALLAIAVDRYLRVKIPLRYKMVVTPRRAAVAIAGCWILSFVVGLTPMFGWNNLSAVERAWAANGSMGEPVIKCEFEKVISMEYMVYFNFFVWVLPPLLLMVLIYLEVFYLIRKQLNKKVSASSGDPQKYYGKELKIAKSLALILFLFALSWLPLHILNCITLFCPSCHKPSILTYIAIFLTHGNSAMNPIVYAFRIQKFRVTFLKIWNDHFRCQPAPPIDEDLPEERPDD

Adenosine receptor A2a [4] = biological target: T1, Adenosine receptor A2a; experiment: Displacement of [3H]CGS21680 from human A2A adenosine receptor expressed in HEK293 cells at 10 uM after 60 mins by liquid scintillation counting; assay type: cell-based
Adenosine receptor A1 = biological target: T5, Adenosine receptor A1 (Homo sapiens, UniProt P30542); experiment: Inhibition of human A1 adenosine receptor expressed in CHO cells after 60 mins by liquid scintillation counting; assay type: cell-based
T5 sequence (P30542 whole entry): T4 sequence (whole entry)

[5] = biological target: T6, Adenosine receptor A3 (Homo sapiens) (UniProt P0DMS8); experiment: Displacement of […] from human A3 adenosine receptor expressed in CHO cells at 10 uM after 60 mins by liquid scintillation counting; assay type: cell-based
T6 sequence (whole entry): T2 sequence (P0DMS8 whole entry)

T1 sequence (P29274 whole entry): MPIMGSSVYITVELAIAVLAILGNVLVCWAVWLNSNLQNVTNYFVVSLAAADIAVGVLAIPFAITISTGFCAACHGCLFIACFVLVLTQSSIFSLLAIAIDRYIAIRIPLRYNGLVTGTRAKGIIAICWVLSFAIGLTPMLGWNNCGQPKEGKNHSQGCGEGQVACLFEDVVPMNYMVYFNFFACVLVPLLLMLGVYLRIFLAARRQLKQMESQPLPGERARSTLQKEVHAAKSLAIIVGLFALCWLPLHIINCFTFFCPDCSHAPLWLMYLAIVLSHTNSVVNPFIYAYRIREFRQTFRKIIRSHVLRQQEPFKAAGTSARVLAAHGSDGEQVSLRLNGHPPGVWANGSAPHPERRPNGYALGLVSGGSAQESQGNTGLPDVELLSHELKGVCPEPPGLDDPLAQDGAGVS

Row | Ki (Adenosine receptor A2a [1]) [µM] | Ki (Adenosine receptor A3) [µM] | inhibition [2] [%] | inhibition [3] [%] | inhibition (Adenosine receptor A2a [4]) [%] | Ki (Adenosine receptor A1) [µM] | inhibition [5] [%] | SMILES
1 | 1.7 | 5.5 | 43 | 49 |  |  |  | Cc1cccc(C)c1OCC(=O)Nc1nc(-c2ccccc2)n[nH]1
2 | 1.8 | 6.3 |  | 12 |  |  |  | Cc1cccc(-c2n[nH]c(NC(=O)[C@@H](C)Oc3ccccc3)n2)c1
3 |  |  | -10 | 8 | 49 |  |  | COc1ccccc1OCC(=O)Nc1nc(-c2ccc(C)cc2)n[nH]1
4 | 0.4 | 0.3 |  |  |  | 1.9 |  | O=C(Nc1nnc(-c2ccccc2)[nH]1)c1ccccc1
5 | 1 | 3.3 | 23 |  |  | 5.2 |  | C[C@@H](Oc1ccccc1)C(=O)Nc1nc(-c2ccccc2)n[nH]1
6 |  |  | 13 | 16 |  |  |  | Cc1ccccc1OCC(=O)Nc1nc(-c2ccccc2)n[nH]1
7 | 6.4 | 1.4 | -6 | 38 |  |  |  | Cc1ccc(O[C@H](C)C(=O)Nc2nc(-c3ccccc3)n[nH]2)cc1
8 | 1.8 | 2.3 |  |  |  |  |  | O=C(COc1ccccc1)Nc1nnc(-c2ccccc2)[nH]1
9 |  |  | 10 | 18 | 43 |  |  | CC(=O)Nc1nc(-c2ccccc2)n[nH]1
10 | 0.2 | 0.3 |  |  |  |  |  | COc1ccccc1NC(=O)Nc1nnc(-c2ccccc2)[nH]1
11 |  |  | 31 |  |  |  |  | C[C@@H](Oc1ccccc1F)C(=O)Nc1nc(-c2ccccc2)n[nH]1
12 |  |  | -2 | 31 |  |  |  | O=C(Nc1nc(-c2ccccc2)n[nH]1)c1ccc(Cl)cc1
13 | 1 | 2.6 |  |  |  | 3.7 |  | C[C@@H](Oc1ccccc1F)C(=O)Nc1nnc(-c2ccccc2)[nH]1
14 |  |  | 11 | 2 | 2 |  | 50 | Cc1ccc(-c2n[nH]c(NC(=O)COc3ccccc3F)n2)cc1
15 | 8.8 | 0.5 |  |  |  |  |  | CC(C)(Oc1ccc(Cl)cc1)C(=O)Nc1nnc(-c2ccccc2)[nH]1
16 | 2 | 5.9 |  |  |  |  |  | Cc1cccc(-c2nnc(NC(=O)C(C)Oc3ccccc3)[nH]2)c1 (configuration not stated)
17 | 1.1 | 0.2 |  |  |  | 0.8 |  | CCCC(=O)Nc1nnc(-c2ccccc2)[nH]1
18 | 3.5 | 1.5 | -10 | 2 |  |  |  | O=C(COc1ccccc1)Nc1nc(-c2ccc(F)cc2)n[nH]1
19 |  | 5.3 |  | 37 | 38 |  |  | Cc1ccc(O[C@H](C)C(=O)Nc2nc(-c3ccco3)n[nH]2)cc1
20 |  |  | 72 |  |  |  |  | O=C(Nc1nc(-c2ccccc2)n[nH]1)c1ccccc1
21 |  |  | 16 | 20 |  |  |  | O=C(COc1ccccc1)Nc1nc(-c2ccccc2)n[nH]1
22 | 5.9 | 3.1 | -7 |  |  | 3.2 |  | O=C(Nc1nc(-c2ccccc2)n[nH]1)C1CCCO1 (configuration not stated)

Row | Ki (Adenosine receptor A2a [1]) [µM] | Ki (Adenosine receptor A3) [µM] | inhibition [2] [%] | inhibition [3] [%] | inhibition (Adenosine receptor A2a [4]) [%] | Ki (Adenosine receptor A1) [µM] | inhibition [5] [%] | SMILES
23 |  | 1 |  |  |  |  |  | COc1ccccc1OCC(=O)Nc1nnc(-c2ccc(C)cc2)[nH]1
24 | 3.2 | 2.7 |  |  |  | 1.6 |  | Cc1cc(C)cc(OCC(=O)Nc2nnc(-c3ccccc3)[nH]2)c1
25 | 3.4 | 8.3 | 40 | 40 |  |  |  | O=C(CCc1ccccc1)Nc1nc(-c2ccccc2)n[nH]1
26 | 2.2 | 1.9 |  |  |  | 3.3 |  | C[C@@H](Sc1ccccc1)C(=O)Nc1nnc(-c2ccccc2)[nH]1
27 | 1.7 | 1 |  |  |  |  |  | Cc1ccccc1OCC(=O)Nc1nnc(-c2ccccc2)[nH]1
28 | 3.9 | 2.2 | 9 | 46 |  |  |  | O=C(COc1ccc2c(c1)CCC2)Nc1nc(-c2ccccc2)n[nH]1
29 | 2 | 1.5 | 8 |  |  | 2.3 |  | Cc1cccc(OCC(=O)Nc2nc(-c3ccccc3)n[nH]2)c1
30 |  |  |  | 13 | 23 |  | 32 | Cc1cccc(-c2n[nH]c(NC(=O)[C@H](C)Oc3ccccc3)n2)c1
31 |  |  | 5 |  |  |  |  | CCCC(=O)Nc1nc(-c2ccccc2)n[nH]1
32 |  |  | 6 | 41 |  |  |  | CC(C)(Oc1ccc(Cl)cc1)C(=O)Nc1nc(-c2ccccc2)n[nH]1
33 | 4 | 2.5 | 51 |  |  | 3.9 |  | C[C@@H](Oc1ccc(Cl)cc1)C(=O)Nc1nc(-c2ccccc2)n[nH]1
34 |  |  | -6 | 29 |  |  |  | COc1ccc(CC(=O)Nc2nc(-c3ccccc3)n[nH]2)cc1
35 |  |  | 21 |  |  |  |  | C[C@@H](Sc1ccccc1)C(=O)Nc1nc(-c2ccccc2)n[nH]1
36 |  |  | -3 | 6 | 26 |  | 48 | Cc1ccccc1-c1n[nH]c(NC(=O)[C@@H](C)Oc2ccccc2)n1
37 |  | 0.3 |  |  |  |  |  | CC(=O)Nc1nnc(-c2ccccc2)[nH]1
38 |  |  | 10 | 22 |  |  |  | COc1ccccc1NC(=O)Nc1nc(-c2ccccc2)n[nH]1
39 | 3.6 | 3.2 |  |  |  | 6.5 |  | Cc1ccc(-c2nnc(NC(=O)COc3ccccc3)[nH]2)cc1
40 |  |  | 5 | 8 |  |  |  | Cc1cccc(-c2n[nH]c(NC(=O)C(C)Oc3ccccc3)n2)c1 (configuration not stated)
41 | 2.5 | 0.3 | 8 | 39 |  |  |  | CCC(=O)Nc1nc(-c2ccccc2)n[nH]1
42 | 0.2 | 0.6 | 16 |  |  | 0.5 |  | COc1ccccc1C(=O)Nc1nc(-c2ccccc2)n[nH]1
43 | 1.2 |  |  |  |  |  |  | Cc1cccc(O[C@H](C)C(=O)Nc2nnc(-c3ccccc3)[nH]2)c1
44 | 2.8 | 0.2 |  |  |  |  |  | O=C(Nc1nnc(-c2ccccc2)[nH]1)c1ccc(Cl)cc1

Row | SMILES | Ki (Adenosine receptor A2a [1]) [µM] | Ki (Adenosine receptor A3) [µM] | inhibition [2] [%] | inhibition [3] [%] | inhibition (Adenosine receptor A2a [4]) [%] | Ki (Adenosine receptor A1) [µM] | inhibition [5] [%]
45 | C[C@@H](Oc1cccc(Cl)c1)C(=O)Nc1nc(-c2ccccc2)n[nH]1 |  |  | 28 |  |  |  | 
46 | Cc1ccc(-c2n[nH]c(NC(=O)COc3ccccc3)n2)cc1 |  |  | 23 |  |  |  | 
47 | CC[C@@H](Oc1ccccc1)C(=O)Nc1nc(-c2ccccc2)n[nH]1 | 1.4 | 1.9 | -9 |  |  | 1.5 | 
48 | Cc1cccc(O[C@H](C)C(=O)Nc2nc(-c3ccccc3)n[nH]2)c1 |  |  | 18 |  |  |  | 
49 | C[C@@H](Oc1cccc(Cl)c1)C(=O)Nc1nnc(-c2ccccc2)[nH]1 | 1 | 2.6 |  |  |  | 1.1 | 
50 | Cc1cc(C)cc(OCC(=O)Nc2nc(-c3ccccc3)n[nH]2)c1 |  |  | -5 |  |  |  | 
51 | O=C(COCc1ccccc1)Nc1nc(-c2ccccc2)n[nH]1 | 5 | 4.6 | 7 |  |  | 8.1 | 
52 | Cc1ccc(C(=O)Nc2nc(-c3ccccc3)n[nH]2)cc1 | 0.3 | 0.1 | 29 |  |  | 1.3 | 
